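Test compounds were applied to cells in 96-well plates for 48 hours at 5 doses. GI50: concentration for 50% inhibition of growth. TGI: total growth inhibition.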
Tests used:
Experiment in all cases: inhibition of tumour cell growth, NCI panel, 48 h
[1] = tested on: MALME-3M melanoma
[2] = tested on: RPMI-8226 leukemia
[3] = tested on: MDA-MB-231 breast
[4] = tested on: SF-539 CNS
[5] = tested on: COLO 205 colon
[6] = tested on: T-47D breast
[7] = tested on: HT29 colon
[8] = tested on: MOLT-4 leukemia
[9] = tested on: K-562 leukemia
[10] = tested on: UO-31 renal
[11] = tested on: UACC-257 melanoma
[12] = tested on: HOP-62 NSCLC
[13] = tested on: OVCAR-5 ovarian
[14] = tested on: BT-549 breast
[15] = tested on: OVCAR-8 ovarian
[16] = tested on: EKVX NSCLC
[17] = tested on: SF-295 CNS
[18] = tested on: SK-MEL-2 melanoma
[19] = tested on: OVCAR-3 ovarian
[20] = tested on: KM12 colon
[21] = tested on: HOP-92 NSCLC
[22] = tested on: HCT-116 colon
[23] = tested on: SF-268 CNS
[24] = tested on: DU-145 prostate
[25] = tested on: SR leukemia
[26] = tested on: SN12C renal
[27] = tested on: MCF7 breast
[28] = tested on: ACHN renal
[29] = tested on: CCRF-CEM leukemia
[30] = tested on: HCT-15 colon
[31] = tested on: CAKI-1 renal
[32] = tested on: U251 CNS
[33] = tested on: NCI-H522 lung
[34] = tested on: OVCAR-4 ovarian
[35] = tested on: 786-0 renal
[36] = tested on: UACC-62 melanoma
[37] = tested on: PC-3 prostate
[38] = tested on: SK-OV-3 ovarian
[39] = tested on: A549 NSCLC
[40] = tested on: TK-10 renal
[41] = tested on: NCI-H23 lung
[42] = tested on: NCI-H460 lung
[43] = tested on: LOX IMVI melanoma
[44] = tested on: SNB-75 CNS
[45] = tested on: NCI-H226 lung
[46] = tested on: HS 578T breast
[47] = tested on: SNB-19 CNS
[48] = tested on: SW-620 colon
[49] = tested on: M14 melanoma
[50] = tested on: MDA-MB-435
[51] = tested on: HL-60(TB) leukemia
[52] = tested on: A498 renal
[53] = tested on: IGROV1 ovarian
[54] = tested on: SK-MEL-5 melanoma
[55] = tested on: SK-MEL-28 melanoma
[56] = tested on: HCC-2998 colon
[57] = tested on: RXF 393 renal
[58] = tested on: NCI/ADR-RES ovarian

**Q.** Which GI50 [1] does the source give for Cc1ccc2c(n1)C(=O)C(Cl)=C(Nc1ccc(C(F)(F)F)cc1)C2=O here?
**A.** 1.9 µM

**Q.** And the TGI [1]?
**A.** 3.78 µM

**Q.** What about the GI50 [2] of the same compound?
**A.** 2.23 µM

**Q.** What about the TGI [2] of the same compound?
**A.** 6.08 µM

**Q.** And the GI50 [3]?
**A.** 1.84 µM

**Q.** And the TGI [3]?
**A.** 4.63 µM

**Q.** And the GI50 [4]?
**A.** 1.92 µM

**Q.** And the TGI [4]?
**A.** 3.95 µM

**Q.** What about the GI50 [5] of the same compound?
**A.** 2.21 µM

**Q.** What about the TGI [5] of the same compound?
**A.** 4.83 µM

**Q.** And the GI50 [6]?
**A.** 1.55 µM

**Q.** And the TGI [6]?
**A.** 5.06 µM

**Q.** And the GI50 [7]?
**A.** 2.81 µM

**Q.** What about the TGI [7] of the same compound?
**A.** 7.43 µM

**Q.** What about the GI50 [8] of the same compound?
**A.** 0.347 µM

**Q.** And the TGI [8]?
**A.** 2.99 µM

**Q.** What about the GI50 [9] of the same compound?
**A.** 0.291 µM

**Q.** And the TGI [9]?
**A.** 2.23 µM

**Q.** What about the GI50 [10] of the same compound?
**A.** 1.37 µM

**Q.** And the TGI [10]?
**A.** 2.75 µM

**Q.** And the GI50 [11]?
**A.** 1.7 µM

**Q.** And the TGI [11]?
**A.** 3.27 µM

**Q.** What about the GI50 [12] of the same compound?
**A.** > 100 µM

**Q.** What about the TGI [12] of the same compound?
**A.** > 100 µM

**Q.** What about the GI50 [13] of the same compound?
**A.** 5.07 µM

**Q.** And the TGI [13]?
**A.** 19.8 µM

**Q.** What about the GI50 [14] of the same compound?
**A.** 1.78 µM

**Q.** What about the TGI [14] of the same compound?
**A.** 3.33 µM

**Q.** And the GI50 [15]?
**A.** 3.26 µM

**Q.** What about the TGI [15] of the same compound?
**A.** > 100 µM

**Q.** And the GI50 [16]?
**A.** 1.68 µM

**Q.** What about the TGI [16] of the same compound?
**A.** 3.98 µM

**Q.** What about the GI50 [17] of the same compound?
**A.** > 100 µM

**Q.** And the TGI [17]?
**A.** > 100 µM

**Q.** And the GI50 [18]?
**A.** 7.2 µM

**Q.** What about the TGI [18] of the same compound?
**A.** 32.8 µM

**Q.** What about the GI50 [19] of the same compound?
**A.** 1.61 µM

**Q.** And the TGI [19]?
**A.** 3.03 µM

**Q.** What about the GI50 [20] of the same compound?
**A.** 70.3 µM

**Q.** What about the TGI [20] of the same compound?
**A.** > 100 µM

**Q.** And the GI50 [21]?
**A.** 1.49 µM

**Q.** And the TGI [21]?
**A.** 3.19 µM

**Q.** And the GI50 [22]?
**A.** 0.569 µM

**Q.** And the TGI [22]?
**A.** 2.02 µM

**Q.** And the GI50 [23]?
**A.** 3.57 µM

**Q.** What about the TGI [23] of the same compound?
**A.** 16.5 µM

**Q.** What about the GI50 [24] of the same compound?
**A.** 1.87 µM

**Q.** What about the TGI [24] of the same compound?
**A.** 3.41 µM

**Q.** What about the GI50 [25] of the same compound?
**A.** 0.367 µM

**Q.** What about the TGI [25] of the same compound?
**A.** 2.37 µM

**Q.** What about the GI50 [26] of the same compound?
**A.** 2.31 µM

**Q.** What about the TGI [26] of the same compound?
**A.** 6.51 µM

**Q.** What about the GI50 [27] of the same compound?
**A.** 1.95 µM

**Q.** What about the TGI [27] of the same compound?
**A.** 5.03 µM

**Q.** What about the GI50 [28] of the same compound?
**A.** 1.82 µM

**Q.** And the TGI [28]?
**A.** 3.42 µM

**Q.** What about the GI50 [29] of the same compound?
**A.** 0.879 µM

**Q.** What about the TGI [29] of the same compound?
**A.** 3.89 µM

**Q.** And the GI50 [30]?
**A.** 1.36 µM

**Q.** What about the TGI [30] of the same compound?
**A.** 3.13 µM

**Q.** And the GI50 [31]?
**A.** 1.53 µM

**Q.** And the TGI [31]?
**A.** 3.01 µM

**Q.** And the GI50 [32]?
**A.** 4.93 µM

**Q.** And the TGI [32]?
**A.** 20.5 µM

**Q.** What about the GI50 [33] of the same compound?
**A.** 2 µM

**Q.** And the TGI [33]?
**A.** 4.93 µM

**Q.** And the GI50 [34]?
**A.** 1.69 µM

**Q.** And the TGI [34]?
**A.** 4.31 µM

**Q.** And the GI50 [35]?
**A.** 1.84 µM

**Q.** What about the TGI [35] of the same compound?
**A.** 3.7 µM

**Q.** What about the GI50 [36] of the same compound?
**A.** 2.74 µM

**Q.** And the TGI [36]?
**A.** 10.7 µM

**Q.** And the GI50 [37]?
**A.** 3.7 µM

**Q.** And the TGI [37]?
**A.** 20.7 µM

**Q.** And the GI50 [38]?
**A.** > 100 µM

**Q.** And the TGI [38]?
**A.** > 100 µM

**Q.** And the GI50 [39]?
**A.** > 100 µM

**Q.** What about the TGI [39] of the same compound?
**A.** > 100 µM

**Q.** What about the GI50 [40] of the same compound?
**A.** 2.28 µM

**Q.** And the TGI [40]?
**A.** 3.75 µM

**Q.** And the GI50 [41]?
**A.** 2.02 µM

**Q.** What about the TGI [41] of the same compound?
**A.** 5.58 µM

**Q.** And the GI50 [42]?
**A.** > 100 µM

**Q.** What about the TGI [42] of the same compound?
**A.** > 100 µM

**Q.** What about the GI50 [43] of the same compound?
**A.** 1.22 µM

**Q.** And the TGI [43]?
**A.** 3.04 µM

**Q.** And the GI50 [44]?
**A.** > 100 µM

**Q.** And the TGI [44]?
**A.** > 100 µM

**Q.** And the GI50 [45]?
**A.** 1.89 µM

**Q.** What about the TGI [45] of the same compound?
**A.** 4.72 µM

**Q.** What about the GI50 [46] of the same compound?
**A.** 5.46 µM

**Q.** And the TGI [46]?
**A.** 59.7 µM

**Q.** What about the GI50 [47] of the same compound?
**A.** 11.6 µM

**Q.** And the TGI [47]?
**A.** > 100 µM

**Q.** And the GI50 [48]?
**A.** 1.13 µM

**Q.** And the TGI [48]?
**A.** 3.73 µM

**Q.** What about the GI50 [49] of the same compound?
**A.** 1.74 µM

**Q.** What about the TGI [49] of the same compound?
**A.** 3.36 µM

**Q.** What about the GI50 [50] of the same compound?
**A.** 2.12 µM

**Q.** And the TGI [50]?
**A.** 4.49 µM

**Q.** What about the GI50 [51] of the same compound?
**A.** 1.4 µM

**Q.** What about the TGI [51] of the same compound?
**A.** 3.76 µM

**Q.** What about the GI50 [52] of the same compound?
**A.** 40.2 µM

**Q.** What about the TGI [52] of the same compound?
**A.** > 100 µM

**Q.** And the GI50 [53]?
**A.** 1.82 µM

**Q.** And the TGI [53]?
**A.** 4.04 µM

**Q.** What about the GI50 [54] of the same compound?
**A.** 6.03 µM

**Q.** What about the TGI [54] of the same compound?
**A.** 21.2 µM

**Q.** What about the GI50 [55] of the same compound?
**A.** 2.06 µM

**Q.** What about the TGI [55] of the same compound?
**A.** 3.85 µM

**Q.** What about the GI50 [56] of the same compound?
**A.** 3.14 µM

**Q.** And the TGI [56]?
**A.** 9.98 µM

**Q.** And the GI50 [57]?
**A.** 1.57 µM

**Q.** What about the TGI [57] of the same compound?
**A.** 2.95 µM

**Q.** And the GI50 [58]?
**A.** 2.62 µM

**Q.** What about the TGI [58] of the same compound?
**A.** 8.06 µM
